Where two headings read alike, the source gives them in different places.
Tests used:
[1] = system: P. falciparum strain 3D7 parasites; assay: parasite killing assay, P. falciparum 3D7, pLDH readout; format: cell-based, Plasmodium falciparum; conditions: ring stage
Protocol: P. falciparum strain 3D7 parasites were synchronized to the ring stage and incubated with a dilution series of compound or media control for 48 hours followed by quantification of parasitemia by Plasmodium lactate dehydrogenase assay (pLDH) assay.
(§1) P. falciparum strain 3D7 (Panels A and C) or 3D7 PfGARP KO (Panel B) parasites were synchronized to the ring stage and incubated with a dilution series of compound or media control for 48 hours followed by quantification of parasitemia by pLDH assay.
(§2) A limited structure-activity relationship (SAR) study was then conducted, evaluating 48 analog compounds having the same backbone (black in FIG. 3 inset and FIG. 4), but varying R groups (red) using P. falciparum strain 3D7 and 3D7 PfGARP KO parasites. For the SAR study, 3D7 or 3D7 PfGARP KO parasites were synchronized to the ring stage and incubated with a dilution series of compounds or media control for 48 hours followed by quantification of parasitemia by Plasmodium lactate dehydrogenase assay (pLDH) assay.^30 Each dilution was evaluated in quadruplicate. In all experiments, DMSO concentration was <0.1%.
The small molecule compounds shown in FIG. 4 were tested for their abilities to kill P. falciparum strain 3D7 parasites.

[2] = biological target: PfGARP-A (Plasmodium falciparum, UniProt Q9U0N1); assay: surface plasmon resonance (SPR) binding on BiaCore100
Text: Drugs were immobilized to a CM5 sensorchip and probed with varying concentrations of full length PfGARP on a BiaCore100.
PfGARP-A was immobilized to a sensorchip and probed with varying concentrations of drug on a BiaCore100.

[3] = system: P. falciparum 3D7 strain parasites; assay: NSG/P. falciparum humanized mouse model, 3D7; format: in vivo, Plasmodium falciparum; conditions: 100 mg/kg IP every 8 hours for 4 days, Pf3D7
Protocol: Drugs were evaluated in the NSG/P. falciparum humanized mouse model. Mice were reconstituted with human RBC, infected with P. falciparum 3D7 strain parasites and treated with drug or vehicle control (100 mg/kg dosed IP every 8 hours for 4 days). Parasitemia was monitored by microscopy. Results representative of two independent experiments.
The NSG mouse (NOD scid gamma mouse) is a brand of immunodeficient laboratory mice, which carries the strain non-obese diabetic (NOD). The efficacy of both lead compounds ID #9081579 and ID #9078424 were evaluated in the NSG/P. falciparum humanized mouse model.^32,33,34,35
Briefly, NSG mice (NOD.Cg-Prkdc^scidII2rg^tm1Wjl/SzJ; JAX Cat #005557) were reconstituted with human RBC (huRBC) by daily IP injections with 1 mL of huRBC at 50% hematocrit. On day 12, mice were infected with of 2×10^7 Pf3D7 infected huRBCs via tail vein injection. On day 15, mice were injected IP with ID #9081579 or ID #9078424 at 100 mg/kg final dose (approximately 2 mg per mouse in 5% DMSO/95% PEG400 vehicle) or vehicle alone. Mice were treated with drug or vehicle control every 8 hours for 4 days. This dose and schedule was designed to maintain plasma drug levels above 50 μM, as informed by our single dose PK study in Example 5.

[4] = system: P. falciparum parasites; assay: parasite apoptosis assays (JC-1, TUNEL, ApoStat staining); format: cell-based, Plasmodium falciparum
Protocol: (§3) To assess the morphological effects of compound ID #9081579, 3D7 or 3D7 PfGARP KO parasites were synchronized to the ring stage and incubated with 100 μM 9081579 or vehicle control for 48 hours. […] This induction of apoptosis is further supported by caspase activation and mitochondrial depolarization assays induced by compounds ID #9081579 and ID #9078424 (see FIG. 7).

[5] = biological target: T1, PfGARP (aa 377-560) (Plasmodium falciparum, UniProt P13816); assay: 1H-15N HSQC binding signature
T1 construct: made in house
Protocol: Spectra were collected on a 600 MHz Bruker spectrometer at 17° C. from samples with PfGARP (aa 377-560) alone (Red), or in complex with ID #9078424 (Blue).
Two-dimension (2D) heteronuclear single quantum coherence (HSQC) spectroscopy was used to characterize the binding of ID #9078424 to PfGARP.
Using a series of recombinant PfGARP fragments, ^1H-^15N HSQC experiments were performed using PfGARP with and without ID #9078424. These experiments confirmed predictions that PfGARP was largely an intrinsically disordered protein.

[6] = system: 3D7 PfGARP KO parasites; assay: parasite killing assay, 3D7 PfGARP KO, pLDH readout; format: cell-based, Plasmodium falciparum; conditions: 48 hours
Protocol: as §1, §2

[7] = system: strain INDO; assay: parasite killing in chloroquine and quinine resistant strain INDO; format: cell-based; conditions: Plasmodium falciparum
[8] = system: BeWo cells; assay: BeWo crystal violet viability assay; format: cell-based, human
Protocol: BeWo, a human choriocarcinoma cell line, were grown in the presence of increasing concentrations of ID #9081579 or vehicle alone and cell concentration was measured using a crystal violet viability assay performed 48 hours after addition of drug. Points represent the mean of three independent technical replicates. Bars represent SD.
BeWo cells are a human placental cell line that originates from a choriocarcinoma.^31 These cells have been used widely as an in vitro model to study placental uptake of a variety of nutrients including glucose, amino acids, and iron. BeWo choriocarcinoma cells were grown in the presence of increasing concentrations of compound ID #9081579 or vehicle alone. Cell concentration was measured using a crystal violet viability assay performed 48 hours after addition of drug.

[9] = system: Human WBC (CD45+); assay: human WBC viability by 7AAD/annexin V flow cytometry; format: cell-based
Protocol: Cells were stained with 7AAD and annexin V and analyzed by flow cytometry to assess viability (7AAD−, annexin V−), necrosis (7AAD+, annexin V−), early apoptosis (7AAD−, annexin V+), and late apoptosis (7AAD+, annexin V+).
Human WBC (CD45+) were incubated in the presence of increasing concentrations of compound ID #9081579 or vehicle alone for 48 hours. Cells were stained with 7AAD and annexin V and analyzed by flow cytometry to assess viability (7AAD−, annexin V−), necrosis (7AAD+, annexin V−), early apoptosis (7AAD−, annexin V+), and late apoptosis (7AAD+, annexin V+).

[10] = system: P. falciparum 3D7^0087/N9 strain parasites; assay: NSG/P. falciparum humanized mouse model, adapted strain; format: in vivo, Plasmodium falciparum; conditions: 100 mg/kg IP every 8 hours for 4 days, adapted strain 3D70087/N9
Protocol: ID #9081579 was evaluated in the NSG/P. falciparum humanized mouse model. Mice were reconstituted with human RBC, infected with P. falciparum 3D7^0087/N9 strain parasites and treated with drug or vehicle control (100 mg/kg dosed IP every 8 hours for 4 days). Parasitemia was monitored by microscopy.
Just prior to submission, we have repeated this experiment using ID #9081579 and an adapted parasite strain (3D70087/N9).

[11] = system: 3D7 parasites; assay: morphological effects on 3D7 parasites; format: cell-based, Plasmodium falciparum; conditions: 100 μM, 48 hours
Protocol: (§4) FIG. 6 illustrates the morphological changes that occur when compound ID #9081579 activates parasite apoptosis in P. falciparum strain 3D7 (Panel C), or 3D7 PfGARP KO (Panel B) incubated with 100 μM ID #9081579 (Panels A-B) or vehicle control (Panel A) for 48 hours.
as §3

[12] = system: 3D7 PfGARP KO parasites; assay: morphological effects on 3D7 PfGARP KO parasites; format: cell-based, Plasmodium falciparum; conditions: 100 μM, 48 hours
Protocol: as §4, §3

[13] = system: P. falciparum 3D7 strain parasites; conditions: artesunate at 50 and 100 mg/kg, literature ref 36; cited from earlier work
[14] = FIG. 8 legend: drugs immobilized to CM5 sensorchip
[15] = PfGARP-A immobilized to sensorchip, probed with drug
[16] = increasing concentrations, 48 hours

Sequence of PfGARP-A (Q9U0N1 entry or part of it): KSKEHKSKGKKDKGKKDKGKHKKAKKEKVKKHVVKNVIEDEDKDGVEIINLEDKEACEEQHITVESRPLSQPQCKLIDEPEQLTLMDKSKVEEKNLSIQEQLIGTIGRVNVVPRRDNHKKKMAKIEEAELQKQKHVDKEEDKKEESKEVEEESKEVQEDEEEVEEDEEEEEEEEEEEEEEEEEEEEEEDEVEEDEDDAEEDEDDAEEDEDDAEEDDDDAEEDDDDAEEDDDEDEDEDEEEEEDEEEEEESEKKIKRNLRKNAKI
T1 sequence (P13816 377-560): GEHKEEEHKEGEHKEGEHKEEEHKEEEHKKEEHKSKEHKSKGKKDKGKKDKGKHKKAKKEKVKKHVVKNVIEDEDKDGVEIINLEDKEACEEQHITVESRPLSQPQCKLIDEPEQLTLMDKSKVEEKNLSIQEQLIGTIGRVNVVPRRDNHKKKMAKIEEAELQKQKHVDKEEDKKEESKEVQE

SMILES | IC50 ([1]; 48 hours, read-out: IC50) [µM] | other results
COc1ccc(N(C(C)C(=O)Nc2ccc3c(c2)OCCO3)S(C)(=O)=O)cc1 (stereo not drawn) [ID #7123771] | > 10000 | 
CNC(=O)CN(c1ccc2c(c1)OCCO2)S(C)(=O)=O [ID #7626390] | > 10000 | 
CS(=O)(=O)N(CC(=O)N1CCCCCC1)c1ccc2c(c1)OCCO2 [ID #7627706] | 143 | 
CS(=O)(=O)N(CC(=O)N1CCCC1)c1ccc2c(c1)OCCO2 [ID #7639273] | > 10000 | 
CS(=O)(=O)N(CC(=O)N1CCOCC1)c1ccc2c(c1)OCCO2 [ID #7641147] | 355 | 
CC(C(=O)N1CCN(C)CC1)N(c1ccc2c(c1)OCCO2)S(C)(=O)=O (stereo not drawn) [ID #9072406] | 412 | 
Cc1ccccc1NC(=O)C(C)N(c1ccc2c(c1)OCCO2)S(C)(=O)=O (stereo not drawn) [ID #9072806] | 85.3 | 
CC(C(=O)NC1CCCC1)N(c1ccc2c(c1)OCCO2)S(C)(=O)=O (stereo not drawn) [ID #9074663] | 235 | 
CC(C(=O)N1CCOCC1)N(c1ccc2c(c1)OCCO2)S(C)(=O)=O (stereo not drawn) [ID #9075078] | > 10000 | 
CC(C(N)=O)N(c1ccc2c(c1)OCCO2)S(C)(=O)=O (stereo not drawn) [ID #9076661] | 132 | 
CCOc1ccccc1NC(=O)C(C)N(c1ccc2c(c1)OCCO2)S(C)(=O)=O (stereo not drawn) [ID #9077487] | 49.6 | 
CC(C(=O)Nc1ccccc1Cl)N(c1ccc2c(c1)OCCO2)S(C)(=O)=O (stereo not drawn) [ID #9078424] | 4.39 | IC50 ([1]; 48 hours): 4.4 µM; SPR kinetics [2, 14]: fast on, slow off kinetics; SPR kinetics [2, 15]: fast on/off kinetics; parasitemia [3]: no detectible parasitemia after three days of drug treatment; parasite apoptosis (JC-1, TUNEL, ApoStat staining) [4]: activate parasite apoptosis; binding to PfGARP fragment aa 377-560 [5]: specific drug binding
CC(C(=O)N1CCCC1)N(c1ccc2c(c1)OCCO2)S(C)(=O)=O (stereo not drawn) [ID #9080993] | > 10000 | 
CSc1cccc(NC(=O)C(C)N(c2ccc3c(c2)OCCO3)S(C)(=O)=O)c1 (stereo not drawn) [ID #9081579] | 1.88 | IC50 ([1]; Plasmodium falciparum, 3D7, 48 h, read-out: IC50): 1.8 to 4.8 µM; parasite killing activity in PfGARP KO parasites [6]: no activity; IC50 [7]: 5 to 8 µM; SPR kinetics [2, 14]: fast on, slow off kinetics; SPR kinetics [2, 15]: fast on/off kinetics; highest non-toxic concentration relative to IC50 for parasites ([8]; BeWo cells): 50 fold; concentration causing loss of viability (no loss up to highest concentration tested) ([8]; BeWo cells, 48 hours, crystal violet): > 200 µM; growth of BeWo cells [8, 16]: does not inhibit the growth of BeWo cells; highest non-toxic concentration relative to IC50 for parasites ([9]; human WBC (CD45+)): 100 fold; concentration causing loss of viability (no loss up to highest concentration tested) ([9]; human WBC (CD45+), 48 hours): > 400 µM; cytotoxicity to human white blood cells [9, 16]: not cytotoxic; parasitemia [3]: no detectible parasitemia after three days of drug treatment; parasitemia [10]: rapidly eliminated parasitemia; morphological changes [11]: dysmorphic, shrunken features with pyknotic nuclei; morphological changes [12]: not observed; parasite apoptosis (JC-1, TUNEL, ApoStat staining) [4]: activate parasite apoptosis
CC(C(=O)N1CCCCC1)N(c1ccc2c(c1)OCCO2)S(C)(=O)=O (stereo not drawn) [ID #9082855] | 70.3 | 
CC(C(=O)N(C)C)N(c1ccc2c(c1)OCCO2)S(C)(=O)=O (stereo not drawn) [ID #9082916] | 509 | 
CC(C(=O)Nc1ccccc1)N(c1ccc2c(c1)OCCO2)S(C)(=O)=O (stereo not drawn) [ID #9083000] | 182 | 
Cc1cccc(NC(=O)C(C)N(c2ccc3c(c2)OCCO3)S(C)(=O)=O)c1 (stereo not drawn) [ID #9083036] | 80.8 | 
CC(C(=O)NC1CC1)N(c1ccc2c(c1)OCCO2)S(C)(=O)=O (stereo not drawn) [ID #9083268] | 387 | 
CC(C(=O)NC1CCCCC1)N(c1ccc2c(c1)OCCO2)S(C)(=O)=O (stereo not drawn) [ID #9083607] | 160 | 
CC(C(=O)NC1CCCCCC1)N(c1ccc2c(c1)OCCO2)S(C)(=O)=O (stereo not drawn) [ID #9083885] | 57.2 | 
CC1CCN(C(=O)C(C)N(c2ccc3c(c2)OCCO3)S(C)(=O)=O)CC1 (stereo not drawn) [ID #9084012] | 80.2 | 
COc1ccccc1NC(=O)C(C)N(c1ccc2c(c1)OCCO2)S(C)(=O)=O (stereo not drawn) [ID #9084682] | > 10000 | 
Cc1cccc(C)c1NC(=O)C(C)N(c1ccc2c(c1)OCCO2)S(C)(=O)=O (stereo not drawn) [ID #9084931] | 68.5 | 
CC(C(=O)NC1CC2CCC1C2)N(c1ccc2c(c1)OCCO2)S(C)(=O)=O (stereo not drawn) [ID #9085023] | 46.8 | 
COc1cccc(NC(=O)C(C)N(c2ccc3c(c2)OCCO3)S(C)(=O)=O)c1 (stereo not drawn) [ID #9085101] | > 10000 | 
CN(C)CCNC(=O)CN(c1ccc2c(c1)OCCO2)S(C)(=O)=O [ID #9134158] | 134 | 
CS(=O)(=O)N(CC(=O)NCCCN1CCCC1)c1ccc2c(c1)OCCO2 [ID #9146302] | 124 | 
C[C@H]1[C@H](OC(=O)CCC(=O)O)O[C@@H]2O[C@@]3(C)CC[C@H]4[C@H](C)CC[C@@H]1[C@@]24OO3 [artesunate] |  | parasite clearance [13]: rapid clearance

From patent US12544357B2, “Compositions and methods for the treatment of Plasmodium falciparum malaria” (priority 2021, dated 2026)
